Reference: patent US9107849B2, “Anti-glycation agent comprising a Garcinia kola extract or fraction” (UNIVERSITE D'ANGERS, priority 2012, dated 2015)

How the values were obtained:
calf skin collagen = target: T1, calf skin collagen (Bos taurus, UniProt P02453+P02465); test: Anti-AGE activity on calf skin collagen in solution in the presence of ribose (pentosidine-type AGE fluorescence); format: biochemical; conditions: for IC50: read-out: Anti-AGE activity measured on collagen (IC50 in mg/mL) (converted)
T1 construct: from tissue; host or cells: calf skin
T1 sequence (P02453 162-1217 limits assumed): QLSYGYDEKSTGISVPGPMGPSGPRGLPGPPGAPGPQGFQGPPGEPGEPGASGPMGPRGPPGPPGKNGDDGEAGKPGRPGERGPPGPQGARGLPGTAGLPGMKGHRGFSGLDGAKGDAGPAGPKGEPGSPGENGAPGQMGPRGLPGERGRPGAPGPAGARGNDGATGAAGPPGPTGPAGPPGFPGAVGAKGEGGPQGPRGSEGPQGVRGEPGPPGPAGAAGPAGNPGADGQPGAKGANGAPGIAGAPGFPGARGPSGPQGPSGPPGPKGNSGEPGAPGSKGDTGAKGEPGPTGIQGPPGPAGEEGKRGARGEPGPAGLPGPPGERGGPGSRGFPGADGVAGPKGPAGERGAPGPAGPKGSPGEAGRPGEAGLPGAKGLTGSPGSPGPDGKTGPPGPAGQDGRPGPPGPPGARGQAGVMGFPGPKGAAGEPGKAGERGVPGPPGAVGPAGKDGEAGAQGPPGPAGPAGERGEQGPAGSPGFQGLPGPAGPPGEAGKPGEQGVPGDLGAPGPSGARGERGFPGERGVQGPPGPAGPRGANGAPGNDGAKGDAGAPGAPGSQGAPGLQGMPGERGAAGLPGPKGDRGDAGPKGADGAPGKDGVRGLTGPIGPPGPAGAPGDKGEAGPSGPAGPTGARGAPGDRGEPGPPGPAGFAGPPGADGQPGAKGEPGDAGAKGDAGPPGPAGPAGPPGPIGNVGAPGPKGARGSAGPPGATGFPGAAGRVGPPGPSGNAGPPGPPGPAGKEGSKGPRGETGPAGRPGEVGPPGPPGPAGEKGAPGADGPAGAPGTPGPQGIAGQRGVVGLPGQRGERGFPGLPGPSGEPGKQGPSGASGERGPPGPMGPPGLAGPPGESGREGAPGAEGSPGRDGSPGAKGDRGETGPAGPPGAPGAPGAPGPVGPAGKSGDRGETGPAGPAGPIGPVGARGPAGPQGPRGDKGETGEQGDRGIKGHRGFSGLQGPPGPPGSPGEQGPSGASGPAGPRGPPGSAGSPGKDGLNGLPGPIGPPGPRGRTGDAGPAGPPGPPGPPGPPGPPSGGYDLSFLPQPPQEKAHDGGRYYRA
T1 sequence (P02465 80-1117 limits assumed): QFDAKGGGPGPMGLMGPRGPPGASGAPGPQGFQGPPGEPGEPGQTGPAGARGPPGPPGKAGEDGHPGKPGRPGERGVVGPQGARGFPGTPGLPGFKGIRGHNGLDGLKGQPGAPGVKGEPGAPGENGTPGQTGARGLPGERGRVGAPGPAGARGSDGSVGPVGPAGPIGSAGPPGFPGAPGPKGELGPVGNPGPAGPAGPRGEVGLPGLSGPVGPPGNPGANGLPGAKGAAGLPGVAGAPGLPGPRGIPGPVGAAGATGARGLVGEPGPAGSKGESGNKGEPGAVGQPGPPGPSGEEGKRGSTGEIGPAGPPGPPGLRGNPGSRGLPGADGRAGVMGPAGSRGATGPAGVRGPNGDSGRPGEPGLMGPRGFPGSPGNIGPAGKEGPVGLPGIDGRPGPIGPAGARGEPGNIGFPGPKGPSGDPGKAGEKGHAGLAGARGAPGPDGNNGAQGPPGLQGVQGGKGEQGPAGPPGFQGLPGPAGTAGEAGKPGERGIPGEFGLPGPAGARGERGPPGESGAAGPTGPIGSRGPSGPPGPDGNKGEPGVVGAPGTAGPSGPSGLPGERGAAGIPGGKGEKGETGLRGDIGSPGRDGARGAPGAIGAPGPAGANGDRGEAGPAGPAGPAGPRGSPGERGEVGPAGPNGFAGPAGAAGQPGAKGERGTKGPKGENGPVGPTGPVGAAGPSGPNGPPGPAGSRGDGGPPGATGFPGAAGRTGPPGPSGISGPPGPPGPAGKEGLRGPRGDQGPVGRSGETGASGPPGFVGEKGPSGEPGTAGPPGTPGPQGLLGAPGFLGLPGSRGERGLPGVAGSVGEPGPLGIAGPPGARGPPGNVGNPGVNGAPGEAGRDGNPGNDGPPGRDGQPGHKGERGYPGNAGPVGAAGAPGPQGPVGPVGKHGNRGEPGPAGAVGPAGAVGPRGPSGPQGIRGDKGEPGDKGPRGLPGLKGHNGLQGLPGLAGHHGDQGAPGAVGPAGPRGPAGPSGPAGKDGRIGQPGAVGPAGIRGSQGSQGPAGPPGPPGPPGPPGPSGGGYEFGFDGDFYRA
Experimental: Calf skin collagen (0.1 mg/mL) and ribose (0.5 M) are incubated in phosphate buffer 50 mM pH 7.4 at 37° C. in a 96-well Greiner bio-one plate with a black bottom (100 μL). The same experiment is performed in the presence of an AGE formation inhibitor, such as aminoguanidine (1 mg/mL, DMSO 10%). The following control solutions are also prepared: collagen (0.1 mg/mL) with or without an AGE formation inhibitor (1 mg/mL, DMSO 10%) is incubated in phosphate buffer 50 mM pH 7.4 at 37° C.

albumin = albumin (Bos taurus, UniProt P02769); test: Anti-AGE activity measured on albumin (pentosidine-type AGEs formed); format: biochemical; conditions: quantity of pentosidine-type AGEs formed
Sequence of albumin (P02769 25-607): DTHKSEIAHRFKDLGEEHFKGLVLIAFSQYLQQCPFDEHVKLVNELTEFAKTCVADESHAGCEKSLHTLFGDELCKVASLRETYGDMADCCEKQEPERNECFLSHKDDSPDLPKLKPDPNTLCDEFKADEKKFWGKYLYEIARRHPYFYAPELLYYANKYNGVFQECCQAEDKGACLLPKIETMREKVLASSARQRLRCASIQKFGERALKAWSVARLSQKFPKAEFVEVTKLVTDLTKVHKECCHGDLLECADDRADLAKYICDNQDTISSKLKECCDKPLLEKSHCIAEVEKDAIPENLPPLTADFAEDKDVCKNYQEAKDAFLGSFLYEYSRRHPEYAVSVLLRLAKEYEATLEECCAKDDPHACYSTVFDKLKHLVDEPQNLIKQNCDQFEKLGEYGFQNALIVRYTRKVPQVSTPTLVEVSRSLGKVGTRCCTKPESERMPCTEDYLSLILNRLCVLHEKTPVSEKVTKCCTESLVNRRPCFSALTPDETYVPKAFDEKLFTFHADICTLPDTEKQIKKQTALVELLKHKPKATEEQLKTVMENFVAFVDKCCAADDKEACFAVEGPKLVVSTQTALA

[1] = DPPH antioxidant potential; conditions: for DPPH (μmol TE/g): TE: Trolox Equivalent
[2] = ORAC antioxidant potential; conditions: for ORAC (μmol TE/g): TE: Trolox Equivalent
[3] = ribose, quantity of pentosidine-type AGEs formed, NA: Inactive

For `C/C(=C\CC/C(C)=C/CC[C@]1(C)CCc2cc(O)cc(C)c2O1)CC/C=C(\C)C(=O)O` [garcinoic acid], which “anti-glycation activity on calf skin collagen (in words)” value (calf skin collagen) is on record?
The value was “has a real anti-glycation activity, but nevertheless inferior to that of kolaviron”.

With GB2 as the molecule, how does the “Anti-AGE activity measured on collagen (IC50 in mg/mL)” value (calf skin collagen; [3]) read?
The value was 0.03 mg/mL.

With `Oc1cc(O)c2c(c1)O[C@H](c1ccc(O)c(O)c1)[C@H](O)[C@H]2c1c(O)cc(O)c2c1O[C@H](c1ccc(O)c(O)c1)[C@H](O)C2` [Procyanidin B2] as the molecule, how does the “Anti-AGE activity measured on albumin (IC50 in mg/mL)” value (albumin) read?
Its value is 0.1 mg/mL.

And the “DPPH (μmol TE/g)” value [1]?
The value was 3945 μmol TE/g.

And the “ORAC (μmol TE/g)” value [2]?
Its value is 23720 μmol TE/g.

For `N=C(N)NN` [Aminoguanidine], which IC50 (albumin; read-out: Anti-AGE activity measured on albumin (IC50 in mg/mL) (converted)) is on record?
The IC50 was 2020 µM.

And the “antioxidant activity, DPPH test (in words)” value [1]?
The value was “does not have an antioxidant activity”.

What about the “DPPH (μmol TE/g)” value [1] of the same molecule?
The value was 0 μmol TE/g.

And the IC50 (calf skin collagen; [3])?
The IC50 was 13500 µM.

What about the “antioxidant activity, ORAC test (in words)” value [2] of the same molecule?
Its value is “does not have an antioxidant activity”.

And the “ORAC (μmol TE/g)” value [2]?
Its value is 0 μmol TE/g.

With `O=c1c(O)c(-c2ccc(O)c(O)c2)oc2cc(O)cc(O)c12` [Quercetin] as the molecule, how does the “DPPH (μmol TE/g)” value [1] read?
Its value is 6722 μmol TE/g.

What about the IC50 (calf skin collagen; [3]) of the same molecule?
The IC50 was 1160 µM.
